Measurements reported in patent US20110065753A1, “METHODS OF TREATING POXVIRAL INFECTIONS” (priority 2009, published 2011).
“And” between values parts separate entries of the source, which are not always exact repeats. Equal values may be shown once.

Tests used:
[1] = Iminosugar safety study, BALB/c mice; settings: for weight loss compared to vehicle only control: oral suspension twice a day for 7 days at 100 and 10 mg/kg
[2] = Iminosugar safety study, C57/B1/6 mice; settings: oral suspension twice a day for 7 days at 100 and 10 mg/kg
[3] = test system: Vaccinia NYCBOH strain; assay type: cell-based; settings: read-out: IC50, inhibition of infectivity of Vaccinia virus
[4] = mouse, in vivo
[5] = test system: Cowpox Brighton; assay type: in vivo, BALB/C mice; settings: n=10

SMILES | weight loss compared to vehicle only control [1] | weight loss compared to vehicle only control [2] | IC50 [3] [µM] | weight loss or adverse effects [4] | percentage of surviving mice [5] | general health, clinical signs ([1]; highest concentration (100 mg/kg twice a day, 7 days), symptoms ceased when treatment was done)
CCCCN1C[C@H](O)[C@@H](O)[C@H](O)[C@H]1CO [UV-1, N-Butyl deoxynojirimycin] | did not show any significant signs of weight loss | did not show any significant signs of weight loss | 90 | – | – | –
CCCCCCCCCN1C[C@H](O)[C@@H](O)[C@H](O)[C@H]1CO [UV-2, N-Nonyl deoxynojirimycin] | – | – | 21 | – | – | –
CCCOCCCCCCN1C[C@H](O)[C@@H](O)[C@H](O)[C@H]1CO [UV-3, N-(7-Oxadecyl)deoxynojirimycin] | – | – | 7 | – | – | –
COCCCCCCCCCN1C[C@H](O)[C@@H](O)[C@H](O)[C@H]1CO [UV-4, N-(9-Methoxynonyl) deoxynojirimycin] | did not show any significant signs of weight loss | did not show any significant signs of weight loss | 59 | no weight loss or adverse effects observed | 100% and 70% | –
[N-]=[N+]=Nc1ccc(NCCCCCCN2C[C@H](O)[C@@H](O)[C@H](O)[C@H]2CO)c([N+](=O)[O-])c1 [UV-5, N—(N-{4′-azido-2′-nitrophenyl}-6-aminohexyl)deoxynojirimycin] | did not show any significant signs of weight loss | did not show any significant signs of weight loss | 3 | – | – | signs of diarrhea, red urine, and a ruffled appearance
